Results from US9796753B2, “N-substituted indenoisoquinolines and syntheses thereof” (Purdue Research Foundation, priority 2005, dated 2017).
Read-outs that look alike come from different tables or passages of the source.

Columns and labels:
Format in all cases: cell-based
CNS SF-539 = assay: COMPARE screening (NCI human cancer cell line screen), cytotoxicity GI50
How it was run: (§1)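 Step one: incubate NCI60 cell lines 48 h with test agent (100–0.01 μM, tenfold steps). Step two: SRB dye treatment and OD reading. Step three: percentage growth relative to control plotted against log10 concentration.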

colon HCT-116 = assay: as above
How it was run: as §1

lung HOP-62 = assay: as above
How it was run: as §1

melanoma UACC-62 = assay: as above
How it was run: as §1

ovarian OVCAR-3 = assay: as above
How it was run: as §1

prostate DU-145 = assay: as above
How it was run: as §1

renal SN12C = assay: as above
How it was run: as §1

breast MDA-MB-435 = assay: as above
Description: COMPARE screening. The compounds described herein were examined for antiproliferative activity against the human cancer cell lines in the National Cancer Institute screen (COMPARE screening), in which the activity of each compound was evaluated with approximately 55 different cancer cell lines of diverse tumor origins. […] Therefore, the MGM value represents an overall assessment of toxicity of the compound across numerous cell lines.

[1] = tested on: all human cancer cell lines successfully tested; assay: NCI screen mean graph midpoint (MGM) for growth inhibition
How it was run: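 NCI60 panel cells exposed to compound at 100, 10, 1, 0.1 and 0.01 μM for 48 h, then sulforhodamine B staining. Percentage growth versus control plotted against log concentration; MGM is the midpoint across all lines tested.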

[2] = Homo sapiens, CNSSF-539, read-out: cytotoxicity (GI50) CNS SF-539
[3] = Homo sapiens, HCT-116, read-out: cytotoxicity (GI50) colon HCT-116
[4] = Homo sapiens, HOP-62, read-out: cytotoxicity (GI50) lung HOP-62
[5] = Homo sapiens, UACC-62, read-out: cytotoxicity (GI50) melanoma UACC-62
[6] = Homo sapiens, OVCAR-3, read-out: cytotoxicity (GI50) ovarian OVCAR-3
[7] = Homo sapiens, DU-145, read-out: cytotoxicity (GI50) prostate DU-145
[8] = Homo sapiens, SN12C, read-out: cytotoxicity (GI50) renal SN12C
[9] = Homo sapiens, MDA-MB-435, read-out: cytotoxicity (GI50) breast MDA-MB-435
[10] = Table 1, average GI50 of all cell lines tested (approximately 55), test range 10^−8 to 10^−4 molar
[11] = CNS SF-539, concentration corresponding to 50% growth inhibition, read-out: cytotoxicity (GI50 in μM) CNS SF-539
[12] = colon HCT-116, concentration corresponding to 50% growth inhibition, read-out: cytotoxicity (GI50 in μM) colon HCT-116
[13] = lung HOP-62, concentration corresponding to 50% growth inhibition, read-out: cytotoxicity (GI50 in μM) lung HOP-62
[14] = melanoma UACC-62, concentration corresponding to 50% growth inhibition, read-out: cytotoxicity (GI50 in μM) melanoma UACC-62
[15] = ovarian OVCAR-3, concentration corresponding to 50% growth inhibition, read-out: cytotoxicity (GI50 in μM) ovarian OVCAR-3
[16] = prostate DU-145, concentration corresponding to 50% growth inhibition, read-out: cytotoxicity (GI50 in μM) prostate DU-145
[17] = renal SN12C, concentration corresponding to 50% growth inhibition, read-out: cytotoxicity (GI50 in μM) renal SN12C
[18] = breast MDA-MB-435, concentration corresponding to 50% growth inhibition, read-out: cytotoxicity (GI50 in μM) breast MDA-MB-435
[19] = all human cancer cell lines successfully tested

Compound	MGM (mean GI50 across cell lines) [1, 10]	GI50 (CNS SF-539)	GI50 (colon HCT-116)	GI50 (lung HOP-62)	GI50 (melanoma UACC-62)	GI50 (ovarian OVCAR-3)	GI50 (prostate DU-145)	GI50 (renal SN12C)	GI50 (breast MDA-MB-435)	also measured
Nn1c2c(c3ccccc3c1=O)C(=O)c1ccccc1-2 [Compound 5z, 6-Amino-5,6-dihydro-5,11-diketo-11H-indeno[1,2-c]isoquinoline]	39800 nM	–	–	–	–	–	–	–	–	GI50 (CNS SF-539; [2]): 28.2 µM; GI50 (colon HCT-116; [3]): > 50.1 µM; GI50 (lung HOP-62; [4]): 24.5 µM; GI50 (melanoma UACC-62; [5]): > 50.1 µM; GI50 (ovarian OVCAR-3; [6]): > 50.1 µM; GI50 (prostate DU-145; [7]): > 50.1 µM; GI50 (renal SN12C; [8]): > 50.1 µM; GI50 (breast MDA-MB-435; [9]): > 50.1 µM
Cl.NCCCCCn1c2c(c3ccccc3c1=O)C(=O)c1ccccc1-2 [Compound 5ao, 6-(5-Aminopentyl)-5,6-dihydro-5,11-diketo-11H-indeno[1,2-c]isoquinoline Hydrochloride]	–	–	–	–	–	–	–	–	–	GI50 (CNS SF-539; [2]): 0.871 µM; GI50 (colon HCT-116; [3]): 0.2 µM; GI50 (lung HOP-62; [4]): 0.288 µM; GI50 (melanoma UACC-62; [5]): 1.35 µM; GI50 (ovarian OVCAR-3; [6]): 0.708 µM; GI50 (prostate DU-145; [7]): 0.347 µM; GI50 (renal SN12C; [8]): 0.398 µM; GI50 (breast MDA-MB-435; [9]): 1.35 µM; MGM (mean graph midpoint for growth inhibition) [1, 10]: 0.471 ± 0.054 µM
COc1ccc2c(c1)C(=O)c1c-2n(CCCn2ccnc2)c(=O)c2ccccc12 [Compound 5bs]	–	0.178 µM	0.11 µM	0.056 µM	0.071 µM	1.66 µM	0.204 µM	0.676 µM	0.646 µM	MGM (mean graph midpoint for growth inhibition) [1, 10]: 0.416 ± 0.134 µM
O=C1c2ccccc2-c2oc(=O)c3ccccc3c21 [Compound 4d, Benz[d]indeno[1,2-b]pyran-5,11-dione]	>100000 nM	–	–	–	–	–	–	–	–	GI50 (CNS SF-539; [2]): > 100 µM; GI50 (colon HCT-116; [3]): > 100 µM; GI50 (lung HOP-62; [4]): > 100 µM; GI50 (melanoma UACC-62; [5]): > 100 µM; GI50 (ovarian OVCAR-3; [6]): > 100 µM; GI50 (prostate DU-145; [7]): > 100 µM; GI50 (renal SN12C; [8]): > 100 µM; GI50 (breast MDA-MB-435; [9]): > 100 µM
O=C(O)C(F)(F)F.O=C(O)C(F)(F)F.O=C1c2ccccc2-c2c1c1ccc([N+](=O)[O-])cc1c(=O)n2CCNCCCNCCn1c2c(c3ccc([N+](=O)[O-])cc3c1=O)C(=O)c1ccccc1-2 [Compound 14m, Bis-1,3-{(5,6-dihydro-5,11-diketo-3-nitro-11H-indeno[1,2-c]isoquinoline)-6-ethylamino}propane Bis{trifluoroacetate)]	–	–	–	–	–	–	–	–	–	GI50 (CNS SF-539; [11]): 0.324 µM; GI50 (colon HCT-116; [12]): 0.044 µM; GI50 (lung HOP-62; [13]): 0.631 µM; GI50 (melanoma UACC-62; [14]): 0.603 µM; GI50 (ovarian OVCAR-3; [15]): 0.245 µM; GI50 (prostate DU-145; [16]): 0.813 µM; GI50 (renal SN12C; [17]): 0.123 µM; GI50 (breast MDA-MB-435; [18]): 0.437 µM; MGM (mean graph midpoint for growth inhibition) [1, 19]: 0.354 ± 0.184 µM
COc1cc2c3c(n(CCCN4CCC(N)CC4)c(=O)c2cc1OC)-c1cc2c(cc1C3=O)OCO2.Cl.Cl [Compound 5u, 6-[3-(4-Aminopiperidinyl)-1-propyl]-5,6-dihydro-2,3-dimethoxy-8,9-methylenedioxy-5,11-dioxo-11H-indeno[1,2-c]isoquinoline Dihydrochloride]	–	0.1 µM	0.12 µM	0.427 µM	1.29 µM	–	0.182 µM	0.257 µM	1.74 µM	GI50 (ovarian OVCAR-3; Table 1, concentration corresponding to 50% growth inhibition, read-out: cytotoxicity (GI50) ovarian OVCAR-3): 0.832 µM; MGM (mean graph midpoint for growth inhibition) [1, 10]: 0.766 ± 0.254 µM
CC(C)(C)OC(=O)NCCCCCCCCCCCCn1c2c(c3ccccc3c1=O)C(=O)c1ccccc1-2 [Compound 5ak, 6-(12′-tert-BOC-Aminododecyl)-5,6-dihydro-5,1-dioxo-11H-indeno[1,2-c]isoquinoline]	51300 nM	20.4 µM	> 100 µM	32.4 µM	27.5 µM	> 100 µM	91.2 µM	> 100 µM	> 100 µM	–
CC(C)(C)OC(=O)N(CCCN(CCn1c2c(c3ccccc3c1=O)C(=O)c1ccccc1-2)C(=O)OC(C)(C)C)CCn1c2c(c3ccccc3c1=O)C(=O)c1ccccc1-2 [Compound 13a, Bis-1,3-{(5,6-dihydro-5,11-diketo-11H-indeno[1,2-c]isoquinoline)-(6-ethyl-tert-BOCamino)}propane]	–	–	–	–	–	–	–	–	–	GI50 (CNS SF-539; [11]): > 50.1 µM; GI50 (colon HCT-116; [12]): 22.9 µM; GI50 (lung HOP-62; [13]): 22.4 µM; GI50 (melanoma UACC-62; [14]): > 50.1 µM; GI50 (ovarian OVCAR-3; [15]): 21.4 µM; GI50 (prostate DU-145; [16]): > 50.1 µM; GI50 (renal SN12C; [17]): > 50.1 µM; GI50 (breast MDA-MB-435; [18]): > 50.1 µM; MGM (mean GI50 across cell lines) [1, 19]: 33900 nM
O=C1c2ccccc2-c2c1c1ccc([N+](=O)[O-])cc1c(=O)n2CCCn1ccnc1 [Compound 5f]	–	0.016 µM	0.274 µM	0.19 µM	0.012 µM	0.864 µM	0.017 µM	0.015 µM	2.17 µM	MGM (mean graph midpoint for growth inhibition) [1, 10]: 0.370 ± 0.28 µM
O=C1c2ccccc2-c2oc(=O)c3cc4c(cc3c21)OCO4 [Compound 4b]	57500 nM	> 100 µM	> 100 µM	53.7 µM	> 100 µM	> 100 µM	> 100 µM	> 100 µM	> 100 µM	–
O=C1c2ccccc2-c2oc(=O)c3cc([N+](=O)[O-])ccc3c21 [Compound 4c, 3-nitrobenz[d]indeno[1,2-b]pyran-5,11-dione]	64600 nM	–	–	–	–	–	–	–	–	GI50 (CNS SF-539; [2]): > 100 µM; GI50 (colon HCT-116; [3]): 47.9 µM; GI50 (lung HOP-62; [4]): 18.2 µM; GI50 (melanoma UACC-62; [5]): 25.1 µM; GI50 (ovarian OVCAR-3; [6]): > 100 µM; GI50 (prostate DU-145; [7]): > 100 µM; GI50 (renal SN12C; [8]): > 100 µM; GI50 (breast MDA-MB-435; [9]): > 100 µM
COc1cc2c3c(n(CCCn4ccnc4)c(=O)c2cc1OC)-c1ccccc1C3=O [Compound 5e]	33 nM	< 0.01 µM	0.01 µM	< 0.01 µM	< 0.01 µM	< 0.01 µM	< 0.01 µM	< 0.01 µM	0.014 µM	–
O=C(O)C(F)(F)F.O=C(O)C(F)(F)F.O=C1c2ccccc2-c2c1c1ccccc1c(=O)n2CCCN1CCN(CCCn2c3c(c4ccccc4c2=O)C(=O)c2ccccc2-3)CC1 [Compound 14f, Bis-1,4-{(5,6-dihydro-5,11-diketo-11H-indeno[1,2-c]isoquinoline)-6-propyl}piperazine Bis(trifluoroacetate)]	–	> 100 µM	35.5 µM	12.9 µM	> 100 µM	> 100 µM	24 µM	15.5 µM	> 100 µM	MGM (mean graph midpoint for growth inhibition) [1, 19]: 44.8 ± 2.05 µM
CC(C)(C)OC(=O)N(CCCn1c2c(c3ccccc3c1=O)C(=O)c1ccccc1-2)CCN(CCCn1c2c(c3ccccc3c1=O)C(=O)c1ccccc1-2)C(=O)OC(C)(C)C [Compound 13b, Bis-1,2-{(5,6-dihydro-5,11-diketo-11H-indeno[1,2-c]isoquinoline)-(6-propyl-tert-BOCamino)}ethane]	–	–	–	–	–	–	–	–	–	GI50 (CNS SF-539; [11]): > 50.1 µM; GI50 (colon HCT-116; [12]): 14.1 µM; GI50 (lung HOP-62; [13]): 20 µM; GI50 (melanoma UACC-62; [14]): 45.7 µM; GI50 (ovarian OVCAR-3; [15]): 13.2 µM; GI50 (prostate DU-145; [16]): > 50.1 µM; GI50 (renal SN12C; [17]): 39.8 µM; GI50 (breast MDA-MB-435; [18]): > 50.1 µM; MGM (mean GI50 across cell lines) [1, 19]: 28200 nM
COc1ccc2c(c1)C(=O)c1c-2n(CCCN(C)C)c(=O)c2cc([N+](=O)[O-])ccc12 [Compound 5bp]	–	< 0.01 µM	< 0.01 µM	< 0.01 µM	< 0.01 µM	0.028 µM	< 0.01 µM	< 0.01 µM	< 0.01 µM	MGM (mean graph midpoint for growth inhibition) [1, 10]: 0.020 ± 0.001 µM
O=C1c2ccccc2-c2c1c1ccccc1c(=O)n2CCNCCn1c2c(c3ccccc3c1=O)C(=O)c1ccccc1-2 [Compound 12a, Bis{(5,6-dihydro-5,11-diketo-11H-indeno[1,2-c]isoquinoline)-6-ethyl}amine]	–	> 25.1 µM	> 25.1 µM	> 25.1 µM	> 25.1 µM	> 25.1 µM	> 25.1 µM	> 25.1 µM	> 25.1 µM	MGM (mean GI50 across cell lines) [1, 19]: 18200 nM
COc1cc2c3c(n(CCN4CCOCC4)c(=O)c2cc1OC)-c1ccccc1C3=O [Compound 5h]	741000 nM	> 100 µM	60.3 µM	89.1 µM	56.2 µM	> 100 µM	> 100 µM	> 100 µM	> 100 µM	–
Cl.NCCCCCCn1c2c(c3ccccc3c1=O)C(=O)c1ccccc1-2 [Compound 5ap, 6-(6-Aminohexyl)-5,6-dihydro-5,11-diketo-11H-indeno[1,2-c]isoquinoline Hydrochloride]	1320 nM	–	–	–	–	–	–	–	–	GI50 (CNS SF-539; [2]): 1.23 µM; GI50 (colon HCT-116; [3]): 0.912 µM; GI50 (lung HOP-62; [4]): 1.29 µM; GI50 (melanoma UACC-62; [5]): 1.62 µM; GI50 (ovarian OVCAR-3; [6]): 2 µM; GI50 (prostate DU-145; [7]): 0.603 µM; GI50 (renal SN12C; [8]): 1.32 µM; GI50 (breast MDA-MB-435; [9]): 2.04 µM
